Assay results from patent US6355799B1, “Substituted benzene compounds, process for their preparation, and herbicidal and defoliant compositions containing them” (ISK Americas Incorporated, priority 1997, dated 2002).

Key:
Type in all cases: in vivo
[1] = tested on: field corn (Zea mays L., var. Dekalb 535, CORN); experiment: Post-emerge test, crop safety; details: phytotoxicity rating 0-100 (0 no damage, 100 complete death), 14 days after application
In short: (§1)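 Applied at 15–1000 g ai/ha from acetone in 187 l/ha spray volume. Post-emergence applications included 0.25% v/v non-ionic surfactant and reached plants sown 8–21 days before. Pre-emergence applications were incorporated by surface watering. Efficacy or crop damage was rated on a 0–100 scale after 14 days.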

[2] = tested on: upland rice (Oryza sp., var. Tebonnet, RICE); experiment: Post-emerge test, crop safety; details: phytotoxicity rating 0-100 (0 no damage, 100 complete death), 14 days after application
In short: as §1

[3] = tested on: common ragweed (Ambrosia artemisizfolia L., AMBEL); experiment: Pre-emerge test, greenhouse herbicide activity screening; details: pre-emerge, rated 14 days after application, 0 = no damage, 100 = complete death
In short: as §1

[4] = tested on: velvetleaf (Abutilon theophrasti, ABUTH); experiment: as above; details: pre-emerge, rated 14 days after application, 0 = no damage, 100 = complete death
In short: as §1

[5] = tested on: large crabgrass (Digitaria sanguinalis, DIGSA); experiment: as above; details: pre-emerge, rated 14 days after application, 0 = no damage, 100 = complete death
In short: as §1

[6] = tested on: green foxtail (Setaria viridis, SETVI); experiment: as above; details: pre-emerge, rated 14 days after application, 0 = no damage, 100 = complete death
In short: as §1

[7] = tested on: lambsquarters (Chenopodium album, CHEAL); experiment: as above; details: pre-emerge, rated 14 days after application, 0 = no damage, 100 = complete death
In short: as §1

[8] = tested on: johnsongrass (Sorghum halepense, SORHA); experiment: as above; details: pre-emerge, rated 14 days after application, 0 = no damage, 100 = complete death
In short: as §1

[9] = tested on: sicklepod (Cassia obtusifolia, CASOB); experiment: as above; details: pre-emerge, rated 14 days after application, 0 = no damage, 100 = complete death
In short: as §1

[10] = tested on: ivyleaf morningglory (Ipomoea hederacea, IPOHE); experiment: as above; details: pre-emerge, rated 14 days after application, 0 = no damage, 100 = complete death
In short: as §1

[11] = tested on: barnyardgrass (Echinochloa crus-galli, ECHCG); experiment: as above; details: pre-emerge, rated 14 days after application, 0 = no damage, 100 = complete death
In short: as §1

[12] = tested on: common ragweed (Ambrosia artemisizfolia L., AMBEL); experiment: Post-emerge test, greenhouse herbicide activity screening; details: phytotoxicity rating 0-100 (0 no damage, 100 complete death), 14 days after application
In short: (§2)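 Plants grown in 10 cm pots of sandy loam mix received acetone-dissolved compounds through a moving flat-fan nozzle. Doses ranged from 15 to 1000 g ai/ha. Pre-emerge pots were seeded one day earlier, post-emerge pots 8–21 days earlier. Fourteen days on, each pot was graded 0–100 for damage.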

[13] = tested on: velvetleaf (Abutilon theophrasti, ABUTH); experiment: as above; details: phytotoxicity rating 0-100 (0 no damage, 100 complete death), 14 days after application
In short: as §2

[14] = tested on: large crabgrass (Digitaria sanguinalis, DIGSA); experiment: as above; details: phytotoxicity rating 0-100 (0 no damage, 100 complete death), 14 days after application
In short: as §2

[15] = tested on: redroot pigweed (Amaranthus retroflexus, AMARE); experiment: as above; details: phytotoxicity rating 0-100 (0 no damage, 100 complete death), 14 days after application
In short: as §2

[16] = tested on: lambsquarters (Chenopodium album, CHEAL); experiment: as above; details: phytotoxicity rating 0-100 (0 no damage, 100 complete death), 14 days after application
In short: as §2

[17] = tested on: johnsongrass (Sorghum halepense, SORHA); experiment: as above; details: phytotoxicity rating 0-100 (0 no damage, 100 complete death), 14 days after application
In short: as §2

[18] = tested on: sicklepod (Cassia obtusifolia, CASOB); experiment: as above; details: phytotoxicity rating 0-100 (0 no damage, 100 complete death), 14 days after application
In short: as §2

[19] = tested on: ivyleaf morningglory (Ipomoea hederacea, IPOHE); experiment: as above; details: phytotoxicity rating 0-100 (0 no damage, 100 complete death), 14 days after application
In short: as §2

[20] = tested on: barnyardgrass (Echinochloa crus-galli, ECHCG); experiment: as above; details: phytotoxicity rating 0-100 (0 no damage, 100 complete death), 14 days after application
In short: as §2

[21] = tested on: field corn (Zea mays L., var. Dekalb 535, CORN); experiment: Pre-emerge test, crop safety; details: pre-emerge, rated 14 days after application, 0 = no damage, 100 = complete death
In short: (§3)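 Compounds in acetone were track-sprayed at 187 l/ha, 15–1000 g ai/ha, onto sandy loam pots. Pre-emerge seeds were sown one day before spraying, with surface watering afterwards. Post-emerge plants were at the 2–3 leaf stage and sprayed with 0.25% v/v non-ionic surfactant. Injury was rated 0–100 at 14 days.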

[22] = tested on: upland rice (Oryza sp., var. Tebonnet, RICE); experiment: Pre-emerge test, crop safety; details: pre-emerge, rated 14 days after application, 0 = no damage, 100 = complete death
In short: as §3

[23] = tested on: redroot pigweed (Amaranthus retroflexus, AMARE); experiment: Pre-emerge test, greenhouse herbicide activity screening; details: pre-emerge, rated 14 days after application, 0 = no damage, 100 = complete death
In short: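 Herbicidal damage is scored 0 (none) to 100 (complete plant death) two weeks after a simulated field spray. Rates span 15–1000 g ai/ha, delivered in acetone at 187 l/ha. For post-emergence treatments, plants have 2–3 leaves and the spray carries 0.25% v/v non-ionic surfactant.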

COc1c(Cl)cc(F)c(-n2c(=O)cc(C(F)(F)F)n(C)c2=O)c1NC(=O)c1cccc(C)c1 [2-23]
60: Pre-emerge Herbicidal Activity SORHA (phytotoxicity rating, scale 0-100) ([8]; 63 g ai/ha) | Pre-emerge crop damage CORN (phytotoxicity rating, scale 0-100) ([21]; 63 g ai/ha)
90: Post-emerge Herbicidal Activity CORN (crop damage) ([1]; 250 g ai/ha) | Pre-emerge Herbicidal Activity SORHA (phytotoxicity rating, scale 0-100) ([8]; 250 g ai/ha) | Post-emerge Herbicidal Activity AMBEL ([12]; 63 g ai/ha) | Post-emerge Herbicidal Activity CHEAL ([16]; 250 g ai/ha) | Post-emerge Herbicidal Activity SORHA ([17]; 250 g ai/ha)
95: Post-emerge Herbicidal Activity RICE (crop damage) ([2]; 250 g ai/ha) | Post-emerge Herbicidal Activity CASOB ([18]; 63 g ai/ha) | Pre-emerge crop damage RICE (phytotoxicity rating, scale 0-100) ([22]; 250 g ai/ha)
100: Pre-emerge Herbicidal Activity AMBEL (phytotoxicity rating, scale 0-100) ([3]; 63 g ai/ha) | Pre-emerge Herbicidal Activity AMBEL (phytotoxicity rating, scale 0-100) ([3]; 250 g ai/ha) | Pre-emerge Herbicidal Activity ABUTH (phytotoxicity rating, scale 0-100) ([4]; 63 g ai/ha) | Pre-emerge Herbicidal Activity ABUTH (phytotoxicity rating, scale 0-100) ([4]; 250 g ai/ha) | Pre-emerge Herbicidal Activity DIGSA (phytotoxicity rating, scale 0-100) ([5]; 250 g ai/ha) | Pre-emerge Herbicidal Activity SETVI (phytotoxicity rating, scale 0-100) ([6]; 63 g ai/ha) | Pre-emerge Herbicidal Activity SETVI (phytotoxicity rating, scale 0-100) ([6]; 250 g ai/ha) | Pre-emerge Herbicidal Activity CHEAL (phytotoxicity rating, scale 0-100) ([7]; 63 g ai/ha) | Pre-emerge Herbicidal Activity CHEAL (phytotoxicity rating, scale 0-100) ([7]; 250 g ai/ha) | Pre-emerge Herbicidal Activity CASOB (phytotoxicity rating, scale 0-100) ([9]; 250 g ai/ha) | Pre-emerge Herbicidal Activity IPOHE (phytotoxicity rating, scale 0-100) ([10]; 63 g ai/ha) | Pre-emerge Herbicidal Activity IPOHE (phytotoxicity rating, scale 0-100) ([10]; 250 g ai/ha) | Pre-emerge Herbicidal Activity ECHCG (phytotoxicity rating, scale 0-100) ([11]; 250 g ai/ha) | Post-emerge Herbicidal Activity AMBEL ([12]; 250 g ai/ha) | Post-emerge Herbicidal Activity ABUTH ([13]; 63 g ai/ha) | Post-emerge Herbicidal Activity ABUTH ([13]; 250 g ai/ha) | Post-emerge Herbicidal Activity AMARE ([15]; 250 g ai/ha) | Post-emerge Herbicidal Activity CASOB ([18]; 250 g ai/ha) | Post-emerge Herbicidal Activity IPOHE ([19]; 63 g ai/ha) | Post-emerge Herbicidal Activity IPOHE ([19]; 250 g ai/ha) | Pre-emerge crop damage CORN (phytotoxicity rating, scale 0-100) ([21]; 250 g ai/ha) | Pre-emerge Herbicidal Activity AMARE (phytotoxicity rating, scale 0-100) ([23]; 63 g ai/ha) | Pre-emerge Herbicidal Activity AMARE (phytotoxicity rating, scale 0-100) ([23]; 250 g ai/ha)
30: Post-emerge Herbicidal Activity ECHCG ([20]; 250 g ai/ha)
80: Pre-emerge Herbicidal Activity ECHCG (phytotoxicity rating, scale 0-100) ([11]; 63 g ai/ha) | Pre-emerge crop damage RICE (phytotoxicity rating, scale 0-100) ([22]; 63 g ai/ha)
70: Pre-emerge Herbicidal Activity DIGSA (phytotoxicity rating, scale 0-100) ([5]; 63 g ai/ha) | Pre-emerge Herbicidal Activity CASOB (phytotoxicity rating, scale 0-100) ([9]; 63 g ai/ha) | Post-emerge Herbicidal Activity DIGSA ([14]; 250 g ai/ha) | Post-emerge Herbicidal Activity AMARE ([15]; 63 g ai/ha) | Post-emerge Herbicidal Activity CHEAL ([16]; 63 g ai/ha)
40: Post-emerge Herbicidal Activity CORN (crop damage) ([1]; 63 g ai/ha)
50: Post-emerge Herbicidal Activity RICE (crop damage) ([2]; 63 g ai/ha) | Post-emerge Herbicidal Activity SORHA ([17]; 63 g ai/ha)
0: Post-emerge Herbicidal Activity DIGSA ([14]; 63 g ai/ha) | Post-emerge Herbicidal Activity ECHCG ([20]; 63 g ai/ha)
